Measured values from patent publication US7550588B2, “Homotropanes with central nervous system activity” (The Research Foundation of State University of New York, priority 2006, dated 2009).
Like-named read-outs stand apart in the source and are kept apart here.

Tests used:
[1] = target: T1, serotonin transporter (SERT) (Rattus norvegicus, UniProt P31652); test: Displacement of [3H]paroxetine binding at 5-HT transport sites in rat frontal cortex membranes; conditions: for binding affinity at SERT (in words): summary of Table 1; for Ratio SERT/DAT: SERT binding value divided by DAT binding value
T1 construct: striatum and frontal cortex dissected from frozen Sprague-Dawley rat brains (Pel-Freez, Rogers, Ark.); tissue Pel-Freez, Rogers, Ark; host or cells: rat frontal cortex membranes (frozen Sprague-Dawley rat brains)
T1 sequence (P31652 whole entry): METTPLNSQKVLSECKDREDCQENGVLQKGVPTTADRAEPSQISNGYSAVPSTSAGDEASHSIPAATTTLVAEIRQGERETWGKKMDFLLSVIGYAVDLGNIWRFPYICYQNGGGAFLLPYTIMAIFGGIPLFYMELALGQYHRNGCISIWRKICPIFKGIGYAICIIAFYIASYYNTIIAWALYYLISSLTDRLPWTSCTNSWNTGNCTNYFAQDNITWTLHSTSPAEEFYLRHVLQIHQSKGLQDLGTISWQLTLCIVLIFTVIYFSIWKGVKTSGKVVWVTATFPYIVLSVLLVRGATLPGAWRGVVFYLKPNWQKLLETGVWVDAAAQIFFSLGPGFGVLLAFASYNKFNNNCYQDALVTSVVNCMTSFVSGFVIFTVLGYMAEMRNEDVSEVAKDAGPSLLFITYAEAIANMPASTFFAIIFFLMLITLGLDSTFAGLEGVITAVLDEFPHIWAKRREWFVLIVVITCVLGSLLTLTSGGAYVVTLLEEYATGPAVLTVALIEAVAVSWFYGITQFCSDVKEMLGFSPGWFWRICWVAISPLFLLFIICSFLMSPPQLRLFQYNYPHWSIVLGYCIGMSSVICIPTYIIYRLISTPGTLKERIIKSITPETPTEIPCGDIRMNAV

[2] = target: T2, Dopamine transporter (DAT) (Rattus norvegicus, UniProt P23977); test: Displacement of [125I]RTI-55 binding at dopamine transport sites in rat striatum membranes; conditions: for binding affinity at DAT (in words): summary of Table 1
T2 construct: striatum and frontal cortex dissected from frozen Sprague-Dawley rat brains (Pel-Freez, Rogers, Ark.); tissue Pel-Freez, Rogers, Ark; host or cells: rat striatum membranes (frozen Sprague-Dawley rat brains)
T2 sequence (P23977 whole entry): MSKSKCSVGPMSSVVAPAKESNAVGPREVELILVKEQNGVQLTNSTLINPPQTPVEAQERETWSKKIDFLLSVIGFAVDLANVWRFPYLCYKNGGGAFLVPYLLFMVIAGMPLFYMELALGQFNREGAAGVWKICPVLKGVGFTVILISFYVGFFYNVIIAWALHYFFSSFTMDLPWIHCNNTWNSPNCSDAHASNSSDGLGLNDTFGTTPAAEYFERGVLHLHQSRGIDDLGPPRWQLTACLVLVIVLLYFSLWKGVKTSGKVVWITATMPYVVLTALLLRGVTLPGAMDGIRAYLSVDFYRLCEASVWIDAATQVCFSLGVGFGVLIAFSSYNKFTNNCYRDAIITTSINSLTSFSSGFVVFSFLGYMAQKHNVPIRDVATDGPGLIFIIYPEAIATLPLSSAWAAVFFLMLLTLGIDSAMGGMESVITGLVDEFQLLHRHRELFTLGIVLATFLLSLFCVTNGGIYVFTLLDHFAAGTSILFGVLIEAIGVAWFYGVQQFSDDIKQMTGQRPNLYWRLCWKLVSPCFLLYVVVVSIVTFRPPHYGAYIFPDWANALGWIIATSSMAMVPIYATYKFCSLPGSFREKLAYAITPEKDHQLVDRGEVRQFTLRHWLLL

[3] = [3H]paroxetine 0.4 nM, rat frontal cortex membranes, Cheng-Prusoff, mean ± S.E.M., tested as racemates, read-out: Binding (nM) SERT (converted)
[4] = [125I]RTI-55 10 pM, rat striatum membranes, mean ± S.E.M., at least three experiments, tested as racemates, read-out: Binding (nM) DAT (converted)

SMILES	Ki [1, 3]	binding affinity at SERT (in words) [1]	IC50 [2, 4]	binding affinity at DAT (in words) [2]	Ki [1]	Ratio SERT/DAT [1]	IC50 [2]	melting point	selectivity for SERT ([1]; SERT versus DAT binding)
CCC(=O)[C@@H]1C2CCC(C[C@H]1c1ccc(C)cc1)CN2C (relative stereo) [13a, 6-Methyl-4α-propionyl-3β-(p-tolyl)-6-azabicyclo[3.2.2]nonane]	> 2500 nM	very low binding affinity	1160 ± 240 nM	very low binding affinity					
CCC(=O)C1C(c2ccc(Cl)cc2)CC2CCC1N(C)C2 (stereo not drawn) [12d, 3β-(4-Chlorophenyl)-6-methyl-4β-propionyl-6-azabicyclo[3.2.2]nonane]					860 nM	23	38.1 nM		
CCC(=O)[C@@H]1C2CCC(CN2)C[C@H]1c1ccc(C)cc1 (relative stereo) [18a, 4β-Propionyl-3α-(p-tolyl)-6-azabicyclo[3.2.2]nonane]		relatively strong binding		relatively strong binding	469 ± 32 nM	2.5	187 ± 55 nM		
CCC(=O)C1C(c2ccc(C)cc2)C(c2ccccc2)C2(C)CCC1N(C)C2 (stereo not drawn) [12j, 1,6-Dimethyl-2α-phenyl-4β-propionyl-3β-(p-tolyl)-6-azabicyclo[3.2.2]-nonane]					> 2500 nM		5600 nM	141 to 144 °C	
CCC(=O)[C@@H]1C2CCC(C[C@@H]1c1ccc3ccccc3c1)CN2C (relative stereo) [12b, 6-Methyl-3β-(2-naphthyl)-4β-propionyl-6-azabicyclo[3.2.2]nonane]		strongest binding affinity		strongest binding affinity	13.4 ± 0.0138 nM	4.8	2.8 nM		
CCC(=O)C1C(c2ccc(C)cc2)C(C)C2(C)CCC1N(C)C2 (stereo not drawn) [12i, 1,2α,6-Trimethyl-4β-propionyl-3β-(p-tolyl)-6-azabicyclo[3.2.2]nonane]					> 2500 nM		2140 nM		
CCC(=O)[C@@H]1C2CCC(CN2)C[C@@H]1c1ccc(C)cc1 (relative stereo) [compound 19, 4β-Propionyl-3β-(p-tolyl)-6-azabicyclo [3.2.2]nonane]					156 ± 26 nM	6.3	24.9 ± 5.6 nM		
CCC(=O)C1C(c2ccc(C)cc2)C(c2ccccc2)C2CCC1N(C)C2 (stereo not drawn) [12h, 6-Methyl-2α-phenyl-4β-propionyl-3β-(p-tolyl)-6-azabicyclo[3.2.2]nonane]					> 2500 nM		4100 nM	172 to 173 °C	
C=C(C)c1ccc([C@H]2C[C@@H]3CC[C@H]([C@H]2C(=O)CC)N(C)C3)cc1 (racemic) [12f, 6-Methyl-4β-propionyl-3β-(4-isopropenylphenyl)-6-azabicyclo[3.2.2]nonane]					32.8 nM	0.03	880 nM		most selective for SERT
CCC(=O)C1C2CCC(CC1c1ccc(C)cc1)N(C)C2 (stereo not drawn) [compound 23, 6-Methyl-2α-propionyl-3β-(p-tolyl)-6-azabicyclo[3.2.2]nonane]			4700 ± 900 nM	very low binding affinity					
CCC(=O)C1C(c2ccc(C)cc2)CC2CCC1N(C)C2=O (stereo not drawn) [compound 27, 6-Methyl-4β-propionyl-3β-(p-tolyl)-6-azabicyclo[3.2.2]nonan-7-one]	> 2500 nM	very low binding affinity	7000 nM	very low binding affinity					
CCC(=O)[C@H]1[C@@H](c2ccc(C(C)C)cc2)C[C@@H]2CC[C@H]1N(C)C2 (racemic) [12c, 3β-(4-Isopropylphenyl)-6-methyl-4β-propionyl-6-azabicyclo[3.2.2]nonane]					1760 nM	0.23	7500 nM		
CCC(=O)[C@@H]1C2CCC(C[C@@H]1c1ccc(C)cc1)CN2C (relative stereo) [12a, 6-Methyl-4β-propionyl-3β-(p-tolyl)-6-azabicyclo[3.2.2]nonane]					2230 ± 410 nM	19	117 ± 13 nM		
C=C(C)c1ccc([C@@H]2C[C@@H]3CC[C@@H](NC3)[C@H]2C(=O)CC)cc1 (racemic) [18b, 4β-Propionyl-3α-(4-isopropenylphenyl)-6-azabicyclo[3.2.2]nonane]	6.48 nM	relatively strong binding	370 nM	relatively strong binding		0.02			
C=Cc1ccc(C2CC3CCC(C2C(=O)CC)N(C)C3)cc1 (stereo not drawn) [12e, 3β-(4-Ethenylphenyl)-6-methyl-4β-propionyl-6-azabicyclo[3.2.2]nonane]					116 nM	1.9	75 nM		
CCC(=O)[C@@H]1C2CCC(C[C@H]1c1ccc3ccccc3c1)CN2C (relative stereo) [13b, 6-Methyl-3β-(2-naphthyl)-4α-propionyl-6-azabicyclo[3.2.2]nonane]					6.2 nM	— 0.3	20.8 nM		
CCC(=O)[C@H]1[C@@H](c2ccc(C)cc2)[C@H](C)[C@@H]2CC[C@H]1N(C)C2 (racemic) [12g, 2α,6-Dimethyl-4β-propionyl-3β-(p-tolyl)-6-azabicyclo[3.2.2]nonane]					> 2500 nM		1830 nM		
